Measurements as given in the supplement of paper PMC9912026.

System: A375_Cra_F7_5/13
Test: pERK immunofluorescence, normalised; higher = more ERK phosphorylation
Conditions: vemurafenib 0 µM, drug treatment time 24 h
Procedure: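 A375 or A375 CRISPRa-EGFR (A375_Cra_F7_5/13) cells were adapted for 24 h to a cobimetinib dose series, with or without 1 uM vemurafenib, then stimulated with EGF (100 ng/mL) or mock medium and fixed at the indicated times. pERK was measured by immunofluorescence as the population mean normalised to baseline, with the SD of technical replicates (n=2).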

O=C(c1ccc(F)c(F)c1Nc1ccc(I)cc1F)N1CC(O)([C@@H]2CCCCN2)C1 [cobimetinib]
pERK immunofluorescence
Conditions	cobimetinib 31.62 pM	cobimetinib 0.0001 µM	cobimetinib 0.000316228 µM	cobimetinib 0.001 µM	cobimetinib 0.003162278 µM	cobimetinib 0.01 µM	cobimetinib 0.031622777 µM	cobimetinib 0.1 µM	cobimetinib 0.316227766 µM	cobimetinib 1 µM
EGF 0 ng/mL, time after EGF/mock 0.083 h	0.992	1.01	0.951	0.771	0.467	0.234	0.142	0.111	0.0968	0.0989
EGF 0 ng/mL, time after EGF/mock 0.5 h	0.968	0.9446	0.859	0.742	0.422	0.214	0.177	0.143	0.0997	0.09394
EGF 0 ng/mL, time after EGF/mock 2 h	1.05	1.018	1.03	0.8492	0.55	0.217	0.121	0.107	0.1	0.099798
EGF 0 ng/mL, time after EGF/mock 8 h	0.974	0.999	0.9603	0.801	0.47	0.189	0.102	0.086	0.082	0.082503
EGF 0 ng/mL, time after EGF/mock 24 h	1.07	1.053	1.04	0.927	0.531	0.189	0.116	0.1	0.08927	0.0841
EGF 100 ng/mL, time after EGF/mock 0.083 h	1.47	1.44	1.43	1.42	1.37	1.27	1.15	0.883	0.31	0.111
EGF 100 ng/mL, time after EGF/mock 0.5 h	1.35	1.34	1.31	1.36	1.32	1.26	1.15	1.02	0.675	0.179
EGF 100 ng/mL, time after EGF/mock 2 h	1.21	1.194	1.14	1.08	0.926	0.7446	0.65813	0.527	0.341	0.137
EGF 100 ng/mL, time after EGF/mock 8 h	0.99	0.999	0.997	0.8777	0.735	0.5778	0.475	0.3675	0.221	0.1
EGF 100 ng/mL, time after EGF/mock 24 h	1.07	1.08	1.084	1.04	0.902	0.689	0.5819	0.465	0.273	0.107
